Values after ≈ are worked out from the molar mass of the structure shown.
Key:
[1] = system: Streptococcus pneumoniae ATCC 49619; assay: disk diffusion assay; assay type: cell-based; details: for Disk Diffusion, Streptococcus pneumoniae 49619: kakadumycin B at 10 μg, control antibiotic, MHA w/5% dsb 35° C. w/5% CO2
[2] = system: DNA synthesis in Bacillus subtilis; assay: macromolecular synthesis whole cell assay, [3H]thymidine incorporation; assay type: cell-based; details: 1×MIC
[3] = system: Pseudomonas aeruginosa ATCC 27853; assay: disk diffusion assay; assay type: cell-based; details: kakadumycin B at 10 μg; control antibiotic; MHA 35° C.
[4] = system: Klebsiella pneumoniae ATCC 10031; assay: disk diffusion assay; details: MHA 35° C.
[5] = system: Burkholderia cepacia ATCC 25416; assay: disk diffusion assay; details: kakadumycin B at 10 μg; control antibiotic; MHA 35° C.
[6] = system: Staphylococcus aureus (MRSA) ATCC 33591; assay: disk diffusion assay; details: MHA 35° C.
[7] = system: Shigella dysenteriae ATCC 11835; assay: disk diffusion assay; assay type: cell-based; details: kakadumycin B at 10 μg; control antibiotic; MHA 35° C.
[8] = system: Enterococcus faecalis ATCC 51299; assay: disk diffusion assay; assay type: cell-based; details: for Disk Diffusion, Enterococcus faccalis (VRE) 51299: kakadumycin B at 10 μg, control antibiotic, MHA 35° C.
[9] = system: Enterococcus faecium ATCC 51559; assay: disk diffusion assay; assay type: cell-based; details: 10 micrograms per disk; ciprofloxacin 5, vancomycin 30 micrograms per disk; 35° C.
[10] = system: Enterococcus faecium ATCC 49624; assay: disk diffusion assay; assay type: cell-based; details: for diameter of the zone of inhibition, Enterococcus faecium ATCC 49624: 10 micrograms per disk, ciprofloxacin 5, vancomycin 30 micrograms per disk, 35° C.
Bacillus anthracis K8902 = assay type: cell-based; details: 10 micrograms per disk; ciprofloxacin 5, vancomycin 30 micrograms per disk; 35° C.
[11] = system: Acinetobacter sp. ATCC 49137; assay: disk diffusion assay; assay type: cell-based; details: for Disk Diffusion, Acinetobacter spp. 49137: kakadumycin B at 10 μg, control antibiotic, MHA 35° C.
[12] = system: Staphylococcus aureus (GISA) ATCC 700699; assay: disk diffusion assay; details: kakadumycin B at 10 μg; control antibiotic; MHA 35° C.
[13] = system: Escherichia coli ATCC 25922; assay: disk diffusion assay; assay type: cell-based; details: kakadumycin B at 10 μg; control antibiotic; MHA 35° C.
[14] = system: Human Primary Mammary Epithelial HMEC; assay: CellTiter 96 Aqueous Non-Radioactive Cell Proliferation Assay; assay type: cell-based
Description: (§1) The munumbicins were then tested against three human cancer cell lines (ATCC) and human primary mammary epithelial cells (HMECs) (Clonetics; Biowhittaker, Walkersville, Md.) using a CellTiter 96® Aqueous Non-Radioactive Cell Proliferation Assay kit from Promega (Madison, Wis.). The cell lines were A-549 (lung epithelial carcinoma, ATCC CCL-185), ME-180 (cervical epithelial epidermoid carcinoma, ATCC HTB-33), and BT-20 (breast epithelial cancer, ATCC HTB-19), and were grown in the media recommended by ATCC. The primary mammary cells were cultured as recommended by the manufacturer in mammary epithelial cell growth media (MEGM®). […] After seeding, the cells were incubated for five hours at 37° C. before addition of the munumbicins. Two-fold serial dilutions of the munumbicins were made in the culture medium, and a volume equal to that of the seeded cells for each dilution was added to three wells of cells. Each plate also contained some wells with cells plus medium only and some wells with medium only. […] The A-549 and ME-180 cells were incubated for 48 hours. […] The plates were incubated at 37° C. for one to four hours, and the OD490 was determined. The OD reading of all wells was corrected for background by subtracting the reading of wells containing medium only. […] Kakadumycin A was tested against three human cancer cell lines (ATCC) and human primary mammary epithelial cells using the procedure described above for the munumbicins. Kadadumycin B was tested against one human cancer cell line.

[15] = system: Human Breast Cancer Epithelial BT-20; assay: as above; assay type: cell-based; details: text of Examples 15, 18, 19
Description: as §1

[16] = system: Enterococcus faecalis ATCC 29212; assay: disk diffusion assay; assay type: cell-based
[17] = system: Staphylococcus aureus ATCC 29213; assay: disk diffusion assay; assay type: cell-based
[18] = system: Salmonella typhimurium ATCC 13311; assay: disk diffusion assay; details: kakadumycin B at 10 μg; control antibiotic; MHA 35° C.
[19] = system: Micrococcus luteus ATCC 9341; assay: disk diffusion assay; details: kakadumycin B at 10 μg; control antibiotic; MHA 35° C.
S. epidermis ATCC 12228 = assay: disk diffusion assay; assay type: cell-based, Staphylococcus epidermidis; details: kakadumycin B at 10 μg; control antibiotic; MHA 35° C.
[20] = system: S. maltophilia ATCC 13637; assay: disk diffusion assay; assay type: cell-based, Stenotrophomas maltophilia; details: kakadumycin B at 10 μg; control antibiotic; MHA 35° C.
B. subtilis 1A757 = assay: microbe, parasite or virus in culture; assay type: cell-based, Bacillus subtilis
[21] = system: Listeria monocytogenes 19114; assay: microbroth dilution MIC; assay type: cell-based; details: Listeria monocytogenes, ATCC19114; Table 15; read-out: MIC Listeria monocytogenes ATCC 19114
S. aureus ATCC 6583P = assay: MIC with and without double stranded DNA; assay type: cell-based, Staphylococcus aureus; details: Staphylococcus aureus, ATCC6583P, read-out: MIC S. aureus ATCC 6583P
[22] = system: Staphylococcus aureus GISA, ATCC 700787; assay: microbroth dilution MIC; assay type: cell-based; details: ATCC700787, read-out: MIC Staphylococcus aureus GISA, ATCC 700787
[23] = system: Streptococcus pneumoniae ATCC 70676; assay: microbroth dilution MIC; assay type: cell-based; details: ATCC70676, read-out: MIC Streptococcus pneumoniae ATCC 70676
[24] = system: Shigella dysenteriae ATCC 11835; assay: microbroth dilution MIC; assay type: cell-based; details: ATCC11835, read-out: MIC Shigella dysenteriae ATCC 11835
[25] = system: Staphyloccus aureus MH II Eli Lilly Co.; assay: microbroth dilution MIC; details: Staphylococcus aureus, read-out: MIC Staphyloccus aureus MH II Eli Lilly Co.
[26] = system: Cell wall synthesis in Bacillus subtilis; assay: macromolecular synthesis whole cell assay, [3H]N-acetyl glucosamine incorporation; assay type: cell-based; details: 1×MIC
[27] = system: Listeria monocytogenes 19115; assay: microbroth dilution MIC; assay type: cell-based; details: Listeria monocytogenes, ATCC19115; Table 15; read-out: MIC Listeria monocytogenes ATCC 19115
[28] = system: Staphylococcus aureus ATCC 33591 (MRSA); assay: microbroth dilution MIC; assay type: cell-based; details: Staphylococcus aureus; Table 15
S. aureus 29213 = assay: microbroth dilution MIC; assay type: cell-based, Staphylococcus aureus; details: Staphylococcus aureus, ATCC29213; Table 15; read-out: MIC Staphylococcus aureus ATCC 29213
[29] = system: Staphylococccus aureus 27734; assay: microbroth dilution MIC; assay type: cell-based, Staphylococcus aureus; details: Staphylococcus aureus, ATCC27734; Table 15; read-out: MIC Staphylococcus aureus ATCC 27734
S. epidermis 12228 = assay: microbroth dilution MIC; assay type: cell-based, Staphylococcus epidermidis; details: Staphylococcus epidermidis, ATCC12228; Table 15; read-out: MIC Staphylococcus epidermidis ATCC 12228
[30] = system: Streptococcus pneumoniae 49619; assay: microbroth dilution MIC; assay type: cell-based; details: Streptococcus pneumoniae, ATCC49619; Table 15; read-out: MIC Streptococcus pneumoniae ATCC 49619
E. faecium 49624 = assay: microbroth dilution MIC; assay type: cell-based, Enterococcus faecium; details: Enterococcus faecium, ATCC49624; Table 15; read-out: MIC Enterococcus faecium ATCC 49624
[31] = system: Staphylococccus simulans 11631; assay: microbroth dilution MIC; assay type: cell-based, Staphylococcus simulans; details: Staphylococcus simulans, ATCC11631; Table 15; read-out: MIC Staphylococcus simulans ATCC 11631
[32] = system: Neisseria gonnorhea ATCC 49226; assay: disk diffusion assay; assay type: cell-based; details: 10 micrograms per disk; ciprofloxacin 5, vancomycin 30 micrograms per disk; GC agar with 1% growth supplement with 5% CO2
[33] = system: Streptococcus pneumoniae ATCC 70674; assay: microbroth dilution MIC; assay type: cell-based; details: ATCC70674, read-out: MIC Streptococcus pneumoniae ATCC 70674
[34] = A3-5-1 10 micrograms, Cip 5 micrograms
[35] = kakadumycin B at 10 μg, control antibiotic
[36] = 10 micrograms per disk, ciprofloxacin 5, vancomycin 30 micrograms per disk, 35° C.
[37] = kakadumycin B at 10 μg, control antibiotic, MHA 35° C.

O=C(O)c1cn(C2CC2)c2cc(N3CCNCC3)c(F)cc2c1=O [Ciprofloxacin, reference compound]
Disk Diffusion, Streptococcus pneumoniae 49619 [1]: 24 mm (cipro)
% [3H]thymidine (DNA synthesis) incorporation of that of the untreated culture ([2]; 5 min): 36%
% [3H]thymidine (DNA synthesis) incorporation of that of the untreated culture ([2]; 10 min): 35%
Disk Diffusion, Pseudomonas aeruginosa 27853 [3]: 30 mm (cipro)
Disk Diffusion, Klebsiella pneumoniae 10031 [4, 34]: Cip (5 micro-)-34 mm
Disk Diffusion, Klebsiella pneumoniae 10031 [4, 35]: 32 mm (cipro)
Disk Diffusion, Burkholderia cepacia 25416 [5]: 24 mm (cipro)
Disk Diffusion, Staphylococcus aureus (MRSA) 33591 [6, 34]: Cip (5 micro-)-26 mm
Disk Diffusion, Staphylococcus aureus (MRSA) 33591 [6, 35]: 27 mm (cipro)
Disk Diffusion, Shigella dysenteriae 11835 [7]: 24 mm (cipro)
diameter of the zone of inhibition, Enterococcus faecalis ATCC 51299 [8, 36]: 22 mm
Disk Diffusion, Enterococcus faccalis (VRE) 51299 [8]: 23 mm (cipro)
diameter of the zone of inhibition, Enterococcus faecium ATCC 51559 [9]: 13 mm
diameter of the zone of inhibition, Enterococcus faecium ATCC 49624 [10]: 15 mm
diameter of the zone of inhibition, Bacillus anthracis K8902 (Bacillus anthracis K8902): 16 mm
diameter of the zone of inhibition, Acinetobacter sp. ATCC 49137 ([11]; 10 micrograms per disk, ciprofloxacin 5, vancomycin 30 micrograms per disk, grown at 30° C.): 29 mm
Disk Diffusion, Acinetobacter spp. 49137 [11]: 26 mm (cipro)

kakadumycin B
Disk Diffusion, Streptococcus pneumoniae 49619 [1]: 22 mm
Disk Diffusion, Pseudomonas aeruginosa 27853 [3]: R
Disk Diffusion, Staphylococcus aureus (GISA) 700699 [12]: 22 mm
Disk Diffusion, Escherichia coli 25922 [13]: 8 mm
IC50 cytotoxicity, human mammary epithelial cells [14]: 10.5±1.4 nanograms/ml
IC50 human breast cancer cell line BT 20 [15]: 0.008 µg/mL
Disk Diffusion, Enterococcus faecalis 29212 [16, 37]: 20 mm
Disk Diffusion, Klebsiella pneumoniae 10031 [4, 35]: R
Disk Diffusion, Burkholderia cepacia 25416 [5]: R
Disk Diffusion, Staphylococcus aureus (MRSA) 33591 [6, 35]: 22 mm
Disk Diffusion, Staphylococcus aureus 29213 [17, 37]: 17 mm
Disk Diffusion, Salmonella typhimurium 13311 [18]: R
Disk Diffusion, Micrococcus luteus 9341 [19]: 28 mm
Disk Diffusion, Shigella dysenteriae 11835 [7]: 10 mm
Disk Diffusion, Staphylococcus epidermidis 12228 (S. epidermis ATCC 12228): 23 mm
Disk Diffusion, Enterococcus faccalis (VRE) 51299 [8]: 21 mm
concentration causing detectable lysis of human red blood cells (human red blood cells): > 80 micrograms/ml
Disk Diffusion, Enterococcus faecium 49624 [10, 37]: 22 mm
Disk Diffusion, Stenotrophomas maltophilia 13637 [20]: 13 mm
Disk Diffusion, Acinetobacter spp. 49137 [11]: 11 mm

CN[C@H](CC(C)C)C(=O)N[C@H]1C(=O)N[C@@H](CC(N)=O)C(=O)N[C@H]2C(=O)N[C@H]3C(=O)N[C@H](C(=O)N[C@H](C(=O)O)c4cc(O)cc(O)c4-c4cc3ccc4O)[C@H](O)c3ccc(c(Cl)c3)Oc3cc2cc(c3O[C@@H]2O[C@H](CO)[C@@H](O)[C@H](O)[C@H]2O[C@H]2C[C@](C)(N)[C@H](O)[C@H](C)O2)Oc2ccc(cc2Cl)[C@H]1O [Vancomycin, reference compound]
1×MIC against Bacillus subtilis (B. subtilis 1A757): 0.25 micrograms/ml
increase of MICs when DNA was added (B. subtilis 1A757): not affected
MIC (B. subtilis 1A757; Bacillus subtilis, 1A757, read-out: MIC B. subtilis 1A757): 0.125 µg/mL (≈ 0.0863 µM)
MIC [21]: 1 µg/mL (≈ 0.69 µM)
MIC (S. aureus ATCC 6583P): 0.5 µg/mL (≈ 0.345 µM)
MIC [22]: 8 µg/mL (≈ 5.52 µM)
diameter of the zone of inhibition, Streptococcus pneumoniae ATCC 49619 ([1]; 10 micrograms per disk, ciprofloxacin 5, vancomycin 30 micrograms per disk, MHA with 5% dsb. and 5% CO2): 20 mm
MIC [23]: 0.25 µg/mL (≈ 0.173 µM)
MIC [24]: 2 µg/mL (≈ 1.38 µM)
diameter of the zone of inhibition, Enterococcus faecalis ATCC 29212 [16, 36]: 18 mm
MIC [25]: 0.06 µg/mL (≈ 0.0414 µM)
diameter of the zone of inhibition, Staphylococcus aureus ATCC 29213 [17, 36]: 15 mm
% [3H]N-acetyl glucosamine (Cell wall synthesis) incorporation of that of the untreated culture ([26]; 5 min): 33%
% [3H]N-acetyl glucosamine (Cell wall synthesis) incorporation of that of the untreated culture ([26]; 10 min): 41%
MIC [27]: 1 µg/mL (≈ 0.69 µM)
MIC [28]: 2 µg/mL (≈ 1.38 µM)
MIC (S. aureus 29213): 1 µg/mL (≈ 0.69 µM)
MIC [29]: 1 µg/mL (≈ 0.69 µM)
MIC (S. epidermis 12228): 1 µg/mL (≈ 0.69 µM)
MIC [30]: 0.125 µg/mL (≈ 0.0863 µM)
diameter of the zone of inhibition, Enterococcus faecium ATCC 51559 [9]: 0 mm
MIC (E. faecium 49624): 0.5 µg/mL (≈ 0.345 µM)
diameter of the zone of inhibition, Enterococcus faecium ATCC 49624 [10]: 22 mm
MIC [31]: 1 µg/mL (≈ 0.69 µM)
diameter of the zone of inhibition, Neisseria gonnorhea ATCC 49226 [32]: 13 mm
MIC [33]: 0.25 µg/mL (≈ 0.173 µM)
